According to patent publication EP0582261A1, “Cephalosporin compounds and processes for the preparation thereof” (LUCKY LTD., priority 1992, dated 1994):
≈ marks a conversion by molar mass, not a printed value.

Legend:
Test in all cases: MIC, two-fold dilution method on Müller-Hinton agar
Assay type in all cases: cell-based
Details in all cases: incubated at 37°C for 20 hours
[1] = system: Acinetobacter calcoaceticus ATCC 15473
Method: (§1) The same procedures as described in Example 163 were repeated using 7-amino-1,8-dimethyl[1,3]imidazo[1,2-c] pyrimidine-5-thione prepared in Preparation Example 36 in place of 7-amino-1-methyl[1,3]imidazo[1,2-c]pyrimidine-5-thione to yield 190mg and 180mg of the title compound(a) and (b), respectively, as white solids.
(§2) These MIC values were taken by employing a two-fold dilution method: that is, two-fold serial dilutions of each of the test compounds were made and dispersed in a Müller-Hinton agar medium; 2µl of the standard test strain which had the 10⁷ CFU(Colony Forming Unit) per ml was inoculated on the medium; and these were incubated at 37°C for 20 hours.

[2] = system: Bacillus cereus ATCC 11778
Method: as §1, §2

[3] = system: Bacillus megaterium ATCC 9885
Method: as §1, §2

[4] = system: Citrobacter freundii ATCC 8090
Method: as §1, §2

[5] = system: Enterobacter aerogenes ATCC 29751
Method: as §1, §2

[6] = system: Enterobacter cloacae ATCC 27508
Method: as §1, §2

[7] = system: Escherichia coli ATCC 10536
Method: as §1, §2

[8] = system: Escherichia coli ATCC 25922
Method: as §1, §2

[9] = system: Klebsiella pneumoniae ATCC 10031
Method: as §1, §2

[10] = system: Micrococcus luteus ATCC 9341
Method: as §1, §2

[11] = system: Morganella morganii ATCC 8076h
Method: as §1, §2

[12] = system: Proteus mirabilis ATCC 25933
Method: as §1, §2

[13] = system: Proteus vulgaris ATCC 6059
Method: as §1, §2

[14] = system: Providencia rettgeri ATCC 9250
Method: as §1, §2

[15] = system: Pseudomonas aeruginosa ATCC 10145
Method: as §1, §2

[16] = system: Pseudomonas aeruginosa ATCC 25619
Method: as §1, §2

[17] = system: Pseudomonas aeruginosa ATCC 27853
Method: as §1, §2

[18] = system: Salmonella typhimurium ATCC 14028
Method: as §1, §2

[19] = system: Serratia marcescens ATCC 27117
Method: as §1, §2

[20] = system: Shigella flexneri ATCC 11836
Method: as §1, §2

[21] = system: Shigella sonnei ATCC 11060
Method: as §1, §2

[22] = system: Staphylococcus aureus ATCC 10537
Method: as §1, §2

[23] = system: Staphylococcus aureus ATCC 6538p
Method: as §1, §2

[24] = system: Staphylococcus epidermidis ATCC 12228
Method: as §1, §2

[25] = system: Streptococcus faecalis ATCC 29212
Method: as §1, §2

Compound | MIC values against the standard strains [1] | MIC values against the standard strains [2] | MIC values against the standard strains [3] | MIC values against the standard strains [4] | MIC values against the standard strains [5] | MIC values against the standard strains [6] | MIC values against the standard strains [7] | MIC values against the standard strains [8] | MIC values against the standard strains [9] | MIC values against the standard strains [10] | MIC values against the standard strains [11] | MIC values against the standard strains [12] | MIC values against the standard strains [13] | MIC values against the standard strains [14] | MIC values against the standard strains [15] | MIC values against the standard strains [16] | MIC values against the standard strains [17] | MIC values against the standard strains [18] | MIC values against the standard strains [19] | MIC values against the standard strains [20] | further results
7-[(Z)-2-(2-aminothiazol-4-yl)-2-(methoxy-imino)acetamido]-3-(7-amino-1-methyl[1,2,4]triazolo[1,5-c]pyrimidinium-5-yl)thiomethyl-3-cephem-4-carboxylate [Exp. 46] | 2 µg/mL | 8 µg/mL | 0.063 µg/mL | 0.031 µg/mL | 0.13 µg/mL | ≤0.008 µg/mL | 0.031 µg/mL | 0.031 µg/mL | ≤0.008 µg/mL | 0.016 µg/mL | ≤0.008 µg/mL | 0.13 µg/mL | 0.063 µg/mL | ≤0.008 µg/mL | 4 µg/mL | 2 µg/mL | 2 µg/mL | 0.063 µg/mL | 0.13 µg/mL | 0.016 µg/mL | MIC values against the standard strains [21]: 0.063 µg/mL; MIC values against the standard strains [22]: 0.063 µg/mL; MIC values against the standard strains [23]: 0.13 µg/mL; MIC values against the standard strains [24]: 0.063 µg/mL; MIC values against the standard strains [25]: 16 µg/mL
7-[(Z)-2-(5-amino-1,2,4-thiadiazol-3-yl)-2-(ethoxyimino)acetamido]-3-(7-amino-1-methyl[1,2,4] triazolo[1,5-c]pyrimidinium-5-yl)thiomethyl-3-cephem-4-carboxylate [Exp. 72] | 1 µg/mL | 16 µg/mL | 0.063 µg/mL | 0.063 µg/mL | 0.25 µg/mL | ≤0.008 µg/mL | 0.063 µg/mL | 0.063 µg/mL | 0.016 µg/mL | 0.016 µg/mL | ≤0.008 µg/mL | 0.25 µg/mL | 0.5 µg/mL | ≤0.008 µg/mL | 4 µg/mL | 1 µg/mL | 4 µg/mL | 0.25 µg/mL | 0.25 µg/mL | 0.031 µg/mL | MIC values against the standard strains [21]: 0.063 µg/mL; MIC values against the standard strains [22]: 0.13 µg/mL; MIC values against the standard strains [23]: 0.25 µg/mL; MIC values against the standard strains [24]: 0.25 µg/mL; MIC values against the standard strains [25]: 8 µg/mL
CCC(C)(O/N=C(\C(=O)NC1C(=O)N2C(C(=O)[O-])=C(CSc3nc(N)cc4n3nc(N)[n+]4C)CS[C@H]12)c1csc(N)n1)C(=O)O (stereo partly drawn) [Exp. 96(b), 7-[(Z)-2-(2-aminothiazol-4-yl)-2-(2-carboxybut-2-oxyimino)acetamido]-3-(2,7-diamino-1-methyl[1,2,4]triazolo[1,5-c]pyrimidinium-5-yl)thiomethyl-3-cephem-4-carboxylate] | 4 µg/mL (≈ 5.9 µM) | 16 µg/mL (≈ 23.6 µM) | 0.25 µg/mL (≈ 0.369 µM) | 0.13 µg/mL (≈ 0.192 µM) | 0.5 µg/mL (≈ 0.738 µM) | 0.063 µg/mL (≈ 0.093 µM) | 0.13 µg/mL (≈ 0.192 µM) | 0.13 µg/mL (≈ 0.192 µM) | ≤0.008 µg/mL | 0.016 µg/mL (≈ 0.0236 µM) | ≤0.008 µg/mL | 0.13 µg/mL (≈ 0.192 µM) | 0.063 µg/mL (≈ 0.093 µM) | ≤0.008 µg/mL | 2 µg/mL (≈ 2.95 µM) | 0.5 µg/mL (≈ 0.738 µM) | 1 µg/mL (≈ 1.48 µM) | 0.25 µg/mL (≈ 0.369 µM) | 0.13 µg/mL (≈ 0.192 µM) | 0.031 µg/mL (≈ 0.0457 µM) | MIC values against the standard strains [21]: 0.13 µg/mL (≈ 0.192 µM); MIC values against the standard strains [22]: 1 µg/mL (≈ 1.48 µM); MIC values against the standard strains [23]: 1 µg/mL (≈ 1.48 µM); MIC values against the standard strains [24]: 0.5 µg/mL (≈ 0.738 µM); MIC values against the standard strains [25]: 16 µg/mL (≈ 23.6 µM)
